Assays:
Enterococcus faecalis = assay: Suitability of colorimetric detection compounds for bioelectrochemical detection of Enterococcus faecalis; assay type: cell-based; details: compound used for colorimetric detection of Enterococcus faecalis
Text: Bioelectroanalytical techniques are emerging as ways to enumerate and scrutinize microbial systems. But there is still need in the art for technologies specifically designed for bioelectroanalytical detection of FIB. […] The latter, in particular, makes them unsuitable in self-powering systems.

[1] = test system: Escherichia coli strain BL21; assay: Chronoamperometric detection of E. coli with electrochemically active reporters in three-electrode electrochemical systems (ECs); assay type: cell-based; details: for Detection time (±std dev): chronoamperometry in ECs, reporter 50 μM
Protocol: Resorufin (TCI-Europe), 2-hydroxy-1,4-naphthoquinone (2H14NQ) (TCI-Europe), 5-hydroxy-1,4-naphthoquinone (5H14NQ) (TCI-Europe) and 5,8-dihydroxy-1,4-naphthoquinone (58H14NQ) (Sigma-Aldrich) were obtained commercially and added to M9 medium in their unconjugated form to achieve a working concentration of 50 μM. Resorufin glycoconjugates (resorufin-β-d-galactopyranoside and resorufin-β-d-glucopyranoside) were obtained commercially (Sigma-Aldrich), whereas 2-hydroxy-1,4-naphthoquinone-β-d-galactopyranoside (2H14NQGal) and 2-hydroxy-1,4-naphthoquinone-β-d-glucopyranoside (2H14NQG1u) were specifically synthesized by Sussex Research Ltd. All reporters were added to a final concentration of 50 μM. Stock concentrations (1.0×10^−3 M) of 2H14NQ and 5H14NQ were prepared by first dissolving in 10 μL of 2 M NaOH and then making up to volume in Type II water (Veolia) whereas 58H14NQ (1.0×10^−3 M) was prepared in 1:1 DMSO:Type II water aliquots. Both stock solutions were stored at −20° C. until needed. Conjugated reporters were maintained as 1 mM stock solutions in Type II water and stored at 5° C.
(§1) Escherichia coli strain BL21 was selected to represent a FIB of human origin that contains the uidA and lacZ genes, i.e. a FC, whereas Aeromonas hydrophila (DSM 6173) is an environmental organism that has the lacZ gene but which is not considered a coliform. All organisms were cultured aerobically for 20 h. E. coli was grown in Luria Bertani (Lennox) medium at 37° C., and A. hydrophile at 30° C. in tryptone soy broth (TSB) in a shaking incubator.
(§2) The resulting overnight cultures were diluted in sterile modified M9 medium (Na2HPO4.7H2O (126 mM); KH2PO4 (110 mM); NH4Cl (93 mM); NaCl (42 mM); 1 mL/L vitamin stock solution; tryptone 12.5 g/L; HEPES: 6 g/L; and macro nutrients). The carbon source was either D-galacturonic acid or D-glucuronic acid (3.75 g/L) to achieve a final inoculum density in the range of 1.0×10^0, 5.0×10^0, 5.0×10^1, 5.0×10^2, 5.0×10^3, 5.0×10^4, and 5.0×10^5 CFU mL^−1 in both electrochemical system and the bioelectrochemical system.
Conical ECs with a working volume of 10 mL were used with a customized Teflon cap to accommodate a three electrode configuration along with gas fittings to maintain a moist anaerobic atmosphere. Carbon felt working electrodes (1×1×0.318 cm) (VWR, Singapore) were kept for 24 h in 1 M HCl and stored in deionized (DI) water before use. The electrodes were connected to titanium wire (0.25 mmØ, Sigma-Aldrich) using a nylon nut and bolt. A coiled titanium wire was used as counter electrode and an Ag/AgCl reference electrode (78 mm, 6 mm Outer Ø, Biologic, France) was connected using a 1 M KCl in 1.5% agar salt bridge. The assembled cell was then filled with 1 M KCl solution ending in a 4 mm glass frit (CoralPor™, Biologic, France). The entire assembly was then autoclaved (121° C. for 15 min). Nine mL of degassed modified M9 medium was added to the ECs and supplemented with a reporter to a final concentration of 5.0×10^−5 M in 10 mL working volume. The ECs were then inoculated with the targeted test organism to achieve a final working volume of 10 mL. The headspace was flushed continuously with sterile humidified N2. The ECs were operated at 30° C., 37° C. or 44.5° C. Stirring was maintained continuously with a magnetic stirrer in the dark to prevent photo-bleaching of the light sensitive mediators.
(§3) Following reporter supplement and inoculation with the test microorganism, the ECs were connected to a multichannel potentiostat (Biologic, France) and cyclic voltammetry (CV) and differential pulse voltammetry (DPV) were performed immediately. Data acquisition was recorded by EC-Lab software (Biologic, France). Chronoamperometry (CA) was applied for up to 24 h to detect redox active reporter moieties. A detection event was calculated as 4 times the standard deviation of the baseline and detection times are expressed as the mean of triplicate analyses unless stated otherwise. […]

A. hydrophila = assay: Electrochemical detection of A. hydrophila in ECs; assay type: cell-based, Aeromonas hydrophila; details: both 30° C. and 37° C. (FIG. 5)
Protocol: as §1
(§4) Conical ECs with a working volume of 10 mL were used with a customized Teflon cap to accommodate a three electrode configuration along with gas fittings to maintain a moist anaerobic atmosphere. Carbon felt working electrodes (1×1×0.318 cm) (VWR, Singapore) were kept for 24 h in 1 M HCl and stored in deionized (DI) water before use. The electrodes were connected to titanium wire (0.25 mmØ, Sigma-Aldrich) using a nylon nut and bolt. […]
as §3, with “Chronoamperometry (CA) was applied for up to 24 h to detect redox active reporter moieties.” left out

[2] = test system: mixed culture of E. coli and A. hydrophila; assay: Detection time of mixed culture of A. hydrophila and E. coli in ECs; assay type: cell-based, Escherichia coli; Aeromonas hydrophila; details: 30° C., E. coli constant 5×10^5 CFU mL^−1
Protocol: as §1, §2
as §4, with “bolt. A coiled titanium wire was used as counter electrode and an Ag/AgCl reference electrode (78 mm, 6 mm Outer Ø, Biologic, France) was connected using a 1 M KCl in 1.5% agar salt bridge.” for “bolt.”
as §3, with “Chronoamperometry (CA) was applied for up to 24 h to detect redox active reporter moieties.” left out

Structure (SMILES) | Suitability for bioelectrochemical detection (Enterococcus faecalis) | Detection time (±std dev) ([1]; 30° C., inoculum 5 × 10^2 CFU mL^−1) | Detection time (±std dev) ([1]; 30° C., inoculum 5 × 10^3 CFU mL^−1) | Detection time (±std dev) ([1]; 30° C., inoculum 5 × 10^4 CFU mL^−1) | Detection time (±std dev) ([1]; 30° C., inoculum 5 × 10^5 CFU mL^−1) | Detection times for E. coli ([1]; 30° C., inoculum sizes 5×10^5-5×10^2) | Detection time (±std dev) ([1]; 37° C., inoculum 5 × 10^2 CFU mL^−1) | Detection time (±std dev) ([1]; 37° C., inoculum 5 × 10^3 CFU mL^−1) | Detection time (±std dev) ([1]; 37° C., inoculum 5 × 10^4 CFU mL^−1) | Detection time (±std dev) ([1]; 37° C., inoculum 5 × 10^5 CFU mL^−1) | Detection time ([1]; inoculum size 5×10^3 CFU mL^−1, ECs) | Detection of E. coli achieved in (time) ([1]; inoculum sizes between 5×10^5 and 5×10^3 CFU mL^−1, ECs, triplicate) | Electrochemical detection of A. hydrophila (A. hydrophila) | Detection time, mixed culture ([2]; A. hydrophila 5×10^2 CFU mL^−1 (FIG. 5)) | Detection time, mixed culture ([2]; A. hydrophila 5×10^5 CFU mL^−1 (FIG. 5))
Cc1cc(=O)oc2cc(OC3O[C@H](CO)[C@@H](O)[C@H](O)[C@H]3O)ccc12 (stereo partly drawn) [4-methylumbeliferone-glucoside] | not well suited for bioelectrochemical detection |  |  |  |  |  |  |  |  |  |  |  |  |  | 
O=c1ccc2nc3ccc(O[C@@H]4O[C@H](CO)[C@H](O)[C@H](O)[C@H]4O)cc3oc-2c1 [ResGal, resorufin-β-d-galactopyranoside] |  | 521(±121) minutes | 372(±82) minutes | 218(±31) minutes | 150(±56) minutes | 132 to 521 min | 734(±188) minutes | 477(±23) minutes | 309(±55) minutes | 260 (±55) minutes | ~8 h | 4 to 10 h | could be detected electrochemically | ~450 min | ~280 min

Reference: patent publication US10179927B2, “Electrochemical detection of microorganisms” (priority 2014, dated 2019)
